# From patent US20200352907A1, “Use Of Carbamate Compound For Preventing, Alleviating Or Treating Absence Seizure Or Epilepsy Showing Absence Seizure” (SK BIOPHARMACEUTICALS CO., LTD., priority 2017, published 2020)
# Tests used:
# GAERS model rats = conditions: known from literature; cited from earlier work
# [1] = system: GAERS (Genetic Absence Epilepsy Rat from Strasbourg) model; assay: Efficacy test in GAERS model rats: EEG analysis of spike-and-wave discharges (SWD); type: in vivo; conditions: for cumulated duration of SWD / number of occurrences of SWD: 20-minute intervals 10-90 min after administration, 2-way ANOVA vs vehicle; for cumulated duration of SWD, total effect for 1 hour after administration / number of occurrences of SWD, total effect for 1 hour after administration: 1-way ANOVA vs vehicle, effect similar to valproate 150 and 200 mg/kg
# Method: Twelve 5-week-old GAERS model rats were purchased from the Grenoble Institute of Neurosciences, France. After purchase, the rats were bred at a temperature of 21±2° C. under conditions of free access to food and water, and controlled light (illuminated from 8 am to 8 pm), and the condition was maintained for 2 months prior to surgery.
# EEG electrodes were implanted into twelve 3-month-old GAERS rats. Stereotaxic implantation was performed under anesthesia with isoflurane (2% concentration in oxygen). The rats were fixed to the stereotaxic frame and surgery was performed while observing body temperature. An ophthalmic gel was used to prevent drying of the cornea. After cutting the hair of the incision site, it was disinfected with povidone, and after incision, four holes were drilled using a drill at the frontal cortical and parietal cortical positions of both hemispheres of the open skull. Monopolar electrodes were placed in these holes and then connected to a female connector fixed to the skull for EEG recording. The incision site was then sutured. After surgery, buprenorphine was injected subcutaneously at a dose of 0.1 mg/kg, and the anesthetic was removed and observed until recovery of consciousness. After that, the rats were kept in a cage for recovery for a week.
# One week after the electrode implantation, preliminary EEG measurements of 1 hour were performed on all 12 animals, and 10 animals showing enough signal-to-noise suitable for detecting generation of SWD were selected.
# Test compound and positive control drug were prepared immediately before administration. Carbamic acid (R)-1-(2-chlorophenyl)-2-tetrazol-2-yl-ethyl ester prepared in the above preparation example was used as the test compound which was dissolved in 30% (volume/volume) PEG300 (81164-14, Sigma-Aldrich), and the positive control valproate (P4543, Sigma-Aldrich) was dissolved in 0.9% sterile saline (Cooper, France). Both drugs were administered intraperitoneally at a dose of 5 ml/kg. 30% PEG300 was used for vehicle administration as the negative control.
# The test was done in a cross-over method, with a minimum interval of 71 hours between each administration for wash-out of the drug. In the first stage test, the following conditions were administered. • Vehicle (30% PEG300) • Valproate 200 mg/kg • Test compound 5 mg/kg • Test compound 10 mg/kg • Test compound 20 mg/kg
# In the second stage test, the following conditions were administered. • Valproate 150 mg/kg • Test compound 30 mg/kg
# For EEG recording, 10 GAERS rats were placed in a recording chamber and then connected to a wire for EEG recording. After an hour of habituation process, EEG recordings of free-moving animals were performed. As a baseline phase, 20 minutes of recording were performed before drug administration, and 90 minutes of recording were performed after drug administration, using SystemPlus Evolution (Micromed). During the recording, the animals were kept in a quiet wakefulness state.
# The generated SWD was analyzed using the recorded EEG data, and all data analysis was performed by blind method. SWD was analyzed for the 20-minute baseline phase and for a total of 80 minutes period from 10 to 90 minutes after drug administration. The 80 minutes were analyzed by dividing them into 20-minute intervals, and the number of occurrences of SWD and the cumulated SWD duration (the cumulated duration of SWD) were analyzed.
# Results were expressed as mean value ±standard error, and prism (graphpad) was used for statistical analysis. 2-way ANOVA was used for the number of occurrences of SWD and the cumulated duration of SWD over time. Bonferroni's paired comparison method was used for comparison with the baseline period, comparison with the vehicle-administered negative control and comparison with the valproate-administered positive control. […]
# [2] = compared with valproate positive control
Compound,SWD in the GAERS model rats (GAERS model rats),"effect duration (cumulated duration of SWD) [1, 2]","effect duration (number of occurrences of SWD) [1, 2]",cumulated duration of SWD ([1]; test compound 10 mg/kg i.p.),number of occurrences of SWD ([1]; test compound 10 mg/kg i.p.),"cumulated duration of SWD, total effect for 1 hour after administration ([1]; test compound 20 mg/kg i.p.)","number of occurrences of SWD, total effect for 1 hour after administration ([1]; test compound 20 mg/kg i.p.)",cumulated duration of SWD ([1]; test compound 20 mg/kg i.p.),number of occurrences of SWD ([1]; test compound 20 mg/kg i.p.),"cumulated duration of SWD, total effect for 1 hour after administration ([1]; test compound 30 mg/kg i.p.)","number of occurrences of SWD, total effect for 1 hour after administration ([1]; test compound 30 mg/kg i.p.)",cumulated duration of SWD ([1]; test compound 30 mg/kg i.p.),number of occurrences of SWD ([1]; test compound 30 mg/kg i.p.)
CCC1(C)CC(=O)NC1=O (stereo not shown) [ethosuximide],inhibited,–,–,–,–,–,–,–,–,–,–,–,–
"NC(=O)O[C@@H](Cn1ncnn1)c1ccccc1Cl [test compound, Carbamic acid (R)-1-(2-chlorophenyl)-2-tetrazol-2-yl-ethyl ester]",–,longer duration than valproate,longer duration than valproate,significant reduction effect in the 30-50 min and 50-70 min intervals after administration,significance in the 30 to 50 min interval after administration,significantly reduced the cumulated duration of SWD compared to the vehicle administration group,significantly reduced the number of occurrences of SWD compared to the vehicle administration group,significant reduction effect in the 30-90 min interval after administration,significance in the 30 to 90 min interval after administration,significantly reduced the cumulated duration of SWD compared to the vehicle administration group,significantly reduced the number of occurrences of SWD compared to the vehicle administration group,significant reduction effect in the entire period after administration,significance in the entire period after administration
